# Source: patent US20140045832A1, “Insulin-Like Growth Factor-1 Receptor Inhibitors” (PIRAMAL ENTERPRISES LIMITED, priority 2011, published 2014)
# Assays:
# human IGF-1R = target: T1, human IGF-1R (Homo sapiens, UniProt P08069); test: In vitro IGF-1R kinase assay (HTRF); format: biochemical; conditions: intracellular kinase domain GST fusion, ATP 20 μM, 1 hour at 23° C., read-out: IGFIR-Activity
# T1 construct: IGFRK and IRK enzyme used for the assay was intracellular kinase domain of human IGF-1R and human IR; made in house
# Description: The in vitro kinase assays using IGF-1R and IR kinase GST fusion proteins were conducted using a homogeneous time-resolved fluorescence (HTRF) format. […] The standard enzyme reaction buffer consisted of 50 mM Tris HCL (pH: 7.4), 1 mM EGTA, 10 mM MgCl2, 2 mM DTT, 0.01% Tween-20, IGF-1R/IR kinase enzyme, poly GT peptide substrate (Perkin Elmer [Ulight Glu-Tyr (4:1)]n) and ATP [concentration equivalent to Kmapp]. […] Briefly, 2.5 μL enzyme and 2.5 μL inhibitor was pre-incubated for 10 minutes at 23° C. followed by the addition of 2.5 μL of poly GT substrate (final concentration of 50 nM). Reaction was initiated with the addition of 2.5 μL of ATP (final concentration of 20 μM for IGF-1R assay and 10 μM for IR assay). After 1 hour incubation at 23° C., the kinase reaction was stopped with the addition of 5 μL EDTA (final concentration of 10 mM in 20 μL). Europium cryptate—labeled antiphosphotyrosine antibody PY20 (5 μL) was added (final concentration of 2 nM) and the mixture was allowed to equilibrate for 1 hour at 23° C. followed by reading the plate in an Envision plate reader. The intensity of light emission at 665 nm was directly proportional to the level of substrate phosphorylation. The IC50 values for inhibitors were determined by a four-parameter sigmoidal curve fit (Sigma plot or Graph pad).
# IGFRK and IRK enzyme used for the assay was intracellular kinase domain of human IGF-1R and human IR cloned and expressed as GST fusion proteins using the baculovirus expression system and purified using glutathione—Sepharose column.
# MCF7 cell line = test: Anti-proliferative assay (MTS/CCK-8), MCF7; format: cell-based; conditions: Homo sapiens; MCF7 (breast cancer) cells, 100 ng/mL IGF without FCS, 72 hours; read-out: Anti-proliferation IC50 (μM) MCF7 cell line
# Description: (§1) Anti-proliferative potential of compounds was tested using various cell lines (details provided in Table 2) by MTS (Promega, Cat # G1111), a tetrazolium compound ((3-(4,5-dimethylthiazol-2-yl)-5-(3-carboxymethoxyphenyl)-2-(4-sulphophenyl)-2H-tetrazolium, inner salt; MTS) and Cell Counting kit-8 (CCK-8 a Dojindo's highly water-soluble tetrazolium salt of WST-8 [2-(2-methoxy-4-nitrophenyl)-3-(4-nitrophenyl)-5-(2,4-disulfophenyl)-2H-tetrazolium, monosodium salt]). MTS is a colorimetric assay for determining the number of viable cells in proliferation, cytotoxicity or chemosensitivity assays. This is used with an electron coupling reagent PMS (Phenazine methosulfate). MTS is bioreduced by cells into a formazan that is soluble in tissue culture medium. The absorbance of the formazan at 490 nm can be measured directly from 96 well assay plates without additional processing. Dehydrogenase enzymes found in metabolically active cells accomplish the conversion of MTS into the aqueous soluble formazan. The quantity of formazan product is directly proportional to the number of living cells in culture. In CCK-8, WST-8 is reduced by dehydrogenases in cells to give a yellow colored product formazan, which is measured at 450 nm.
# (§2) For experimental purposes, cells were seeded at a density of 3000-5000 cells per well in 180 μL/well volume in transparent 96 well tissue culture plate (NUNC, USA) and incubated overnight at 37° C., 5% CO2. […] Plates were incubated for 3-4 hours and absorbance was measured at 490 nm on Spectrophotometer (SpectraMax, Molecular Devices). Percentage cytotoxicity and IC50 was calculated using SoftMax software. […] After 4 hour incubation, the absorbance was determined at 450 nm using Spectrophotometer (SpectraMax, Molecular Devices). […]
# HT29 cell line = test: Anti-proliferative assay (MTS/CCK-8), HT29; format: cell-based; conditions: Homo sapiens, HT-29; HT29 (colon cancer) cells, 100 ng/mL IGF without FCS, 72 hours; read-out: Anti-proliferation IC50 (μM) HT29 cell line
# Description: as §1, §2
# CYP3A4 = target: T2, CYP3A4 (Homo sapiens, UniProt P08684); test: CYP inhibition fluorescence assay (rhCYP450, Vivid Invitrogen kit); format: in vitro ADME; conditions: recombinant human CYP3A4, 10 μM compound, read-out: % inhibition of CYP 3A4 at 10 μM
# T2 construct: purchased Invitrogen (Vivid screening kits)
# Description: The % inhibition @ 10 μM data was generated from an rhCYP450/fluorescence assay according to the Vivid Invitrogen screening kits. The compounds were screened against CYP 3A4 isoform because CYP3A4 is responsible for the metabolism of approximately 50-60% of clinical drugs. The lower the percentage inhibition, the lower the CYP450 inhibitory liability of that specific compound.
# T1 sequence (P08069 999-1274 limits assumed): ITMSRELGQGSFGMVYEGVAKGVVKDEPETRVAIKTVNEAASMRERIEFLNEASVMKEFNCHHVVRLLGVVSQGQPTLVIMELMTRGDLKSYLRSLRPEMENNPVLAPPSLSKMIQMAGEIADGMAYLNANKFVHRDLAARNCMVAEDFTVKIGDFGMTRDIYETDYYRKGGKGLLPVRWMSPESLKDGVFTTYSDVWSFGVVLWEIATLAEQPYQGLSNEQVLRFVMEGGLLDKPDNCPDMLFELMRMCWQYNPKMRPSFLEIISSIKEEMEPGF
# T2 sequence (P08684 whole entry): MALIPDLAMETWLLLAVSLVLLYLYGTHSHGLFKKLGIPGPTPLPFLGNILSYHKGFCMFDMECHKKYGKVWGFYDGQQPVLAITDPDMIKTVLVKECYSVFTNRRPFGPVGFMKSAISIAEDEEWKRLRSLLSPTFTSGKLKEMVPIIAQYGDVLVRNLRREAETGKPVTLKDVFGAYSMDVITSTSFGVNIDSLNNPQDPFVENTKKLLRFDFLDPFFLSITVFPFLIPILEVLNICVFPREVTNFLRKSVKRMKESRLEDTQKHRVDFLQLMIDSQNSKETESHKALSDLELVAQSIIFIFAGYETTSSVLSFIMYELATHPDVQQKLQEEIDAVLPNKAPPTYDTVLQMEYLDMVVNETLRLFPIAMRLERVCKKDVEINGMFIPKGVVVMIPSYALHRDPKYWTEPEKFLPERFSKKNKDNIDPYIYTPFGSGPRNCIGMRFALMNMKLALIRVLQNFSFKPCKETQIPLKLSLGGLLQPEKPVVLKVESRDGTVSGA
smiles,measurement,setting,value
"N#CCCNc1cc(Cl)cc2c(S(=O)(=O)N3CCO[C@H](COc4ccccc4)C3)c(C(N)=O)[nH]c12 [Compound 19, (S)-5-chloro-7-(2-cyanoethylamino)-3-(2-(phenoxymethyl)morpholinosulfonyl)-1H-indole-2-carboxamide]",IC50,human IGF-1R,16 nM
same,IC50,MCF7 cell line,< 1 µM
same,IC50,HT29 cell line,5.3 µM
"NC(=O)c1[nH]c2c(NC3CCOCC3)cc(Cl)cc2c1S(=O)(=O)N1CCO[C@H](COc2ccccc2)C1 [Compound 20, (S)-5-chloro-3-(2-(phenoxymethyl)morpholinosulfonyl)-7-(tetrahydro-2H-pyran-4-ylamino)-1H-indole-2-carboxamide]",IC50,human IGF-1R,< 100 nM
same,IC50,MCF7 cell line,0.8 µM
same,IC50,HT29 cell line,2.8 µM
"CCOC(=O)N1CCC(Nc2cc(Cl)cc3c(S(=O)(=O)N4CCO[C@H](COc5ccccc5)C4)c(C(N)=O)[nH]c23)CC1 [Compound 34, (S)-ethyl 4-(2-carbamoyl-5-chloro-3-(2-(phenoxymethyl)morpholinosulfonyl)-1H-indol-7-ylamino)piperidine-1-carboxylate]",IC50,human IGF-1R,68.5 nM
same,IC50,MCF7 cell line,0.9 µM
same,IC50,HT29 cell line,1.7 µM
same,inhibition at 10 µM,CYP3A4,47%
